Data on twelve compounds can be found in patent publication US9637451B2, “Indole compound” (ASTELLAS PHARMA INC., priority 2014, dated 2017).

Data set [1] concerns isolated urethra in a rat. To be noted: Patent Document 5; cited from earlier work.
The target in a further data set is T1, human MT1 receptor (Homo sapiens, UniProt P48039).
T1 construct: expressed in transfected cells
Nature of the data set: Activation of human MT1 receptor in receptor-expressing cells, intracellular Ca2+ by FLIPR. To be noted: for EC50: HEK293EBNA1 cells stably expressing human MT1 and Gq/i chimeric G protein, Ca2+ FLIPR; for Emax: maximum reaction by ramelteon taken as 100%. It is filed as cell-based.

The target in another data set is T2, human MT2 receptor (Homo sapiens, UniProt P49286).
T2 construct: expressed in transfected cells
T2 sequence (P49286 1-362): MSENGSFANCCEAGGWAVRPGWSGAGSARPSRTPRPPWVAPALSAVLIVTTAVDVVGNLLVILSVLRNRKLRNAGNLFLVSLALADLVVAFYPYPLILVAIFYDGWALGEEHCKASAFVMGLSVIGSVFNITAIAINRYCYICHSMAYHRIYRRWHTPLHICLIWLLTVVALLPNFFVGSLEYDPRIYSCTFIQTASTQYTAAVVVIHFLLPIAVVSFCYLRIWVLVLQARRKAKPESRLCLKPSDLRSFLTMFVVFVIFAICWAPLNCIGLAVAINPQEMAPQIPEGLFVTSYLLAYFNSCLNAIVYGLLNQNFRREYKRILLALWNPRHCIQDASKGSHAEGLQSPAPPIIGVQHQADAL
The data set can be described thus: Activation of human MT2 receptor in receptor-expressing cells, intracellular Ca2+ by FLIPR. To be noted: for EC50: HEK293 cells stably expressing human MT2 and Gq/i chimeric G protein, Ca2+ FLIPR; for Emax: maximum reaction by ramelteon taken as 100%. Type of data set: cell-based.

The nature of data set [2]: CSF-to-plasma unbound concentration ratio in rat after intravenous administration. It is filed as in vivo. To be noted: CSF and plasma (unbound), iv, 15 minutes after intravenous administration. As for the experimental part:
A test compound (100 μg/mL, 50% acetonitrile solution) at 1% (v/v) with respect to the amount of the plasma was added to rat plasma, and dispensed to a sample for a supernatant and a sample for the plasma. The sample for a supernatant was ultracentrifuged at 436,000×g and 37° C. for 140 minutes, and the sample for the plasma was incubated at 37° C. for 140 minutes.
After 140 minutes, the sample for a supernatant after the ultracentrifugation and the sample for the plasma were taken, and mixed with the blank plasma or the blank supernatant, respectively. Acetonitrile including an internal standard material was added to each of the samples with the removal of protein, and after the centrifugation at 2150×g and 4° C. for 10 minutes the supernatant was injected into LC-MS/MS.
The unbound fraction in the plasma was calculated by the following equation.
To the plasma of a rat was added a test compound (0.2 mM, 50% acetonitrile solution) in an amount corresponding to 1% (v/v) of the plasma amount, and 200 μL of obtained plasma sample was filled into a plasma chamber of a RED device insert. A buffer chamber was filled with 350 μL of PBS, followed by performing equilibrium dialysis by stirring in a CO2 incubator at 37° C. for 16 hours. The sample after the completion of the equilibrium dialysis was recovered and the volume of the plasma sample was measured. To the plasma sample after the completion of the equilibrium dialysis were added PBS, a 20 mM ammonium formate buffer, and acetonitrile including an internal standard material. Similarly, to the PBS sample after the completion of the equilibrium dialysis was added a blank plasma, a 20 mM ammonium formate buffer, and acetonitrile including an internal standard material. This sample was left to stand at 4° C. for 30 minutes and then centrifuged 1500×g for 10 minutes, and the supernatant was measured by LC-MS/MS. The unbound fraction in the plasma was calculated by the following equation. fp=Cf/{(Cp−Cf)(V/V0)+Cf}
At 15 minutes after intravenously administration of the test compound to the rats, the plasma and CSF were collected. A 50% acetonitrile solution and an acetonitrile including internal standard material were added to the collected plasma or CSF. After centrifuging this sample at 4° C. and 2150×g for 10 minutes, the supernatant was measured by LC-MS/MS, and the total concentration of the test compound in the plasma (Cplasma,t) and the concentration of the test compound in CSF (CCSF) were obtained. The unbound concentration in the plasma (Cplasma,u) of the test compound and the CSF-to-plasma unbound concentration ratio (Kp,uu,CSF) of the test compound was calculated by the following equation.
(§1) The Kp,uu,CSF values and the Kp,brain values of ramelteon and some Example compounds of the present invention are shown in Table 4. Ex represents Example No. of the test compound. Unless otherwise specified, the Kp,uu,CSF was calculated using the fp values determined by an ultracentrifugation method. Further, N.T. represents Not Tested.
(Ramelteon represents the values of Kp,uu,CSF after 10 minutes after the intravenous administration. Further, the Kp,uu,CSF of Examples 37 and 38 was calculated using the fp values determined by an equilibrium dialysis method. In addition, N.D. denotes the concentration of the test compound in CSF that is no higher than the detection limit.)

A short description of data set [3]: Brain-to-plasma concentration ratio in rat after intravenous administration. It is filed as in vivo. As to conditions: brain and plasma, 15 minutes after intravenous administration. As for the experimental part:
At 15 minutes after intravenously administration of the test compound to the rats, the plasma and brain were collected. A 50% acetonitrile solution and an acetonitrile including internal standard material were added to the collected plasma. The collected brain was added to a 2-fold volume of PBS and homogenized. A 50% acetonitrile solution and an acetonitrile including internal standard material were added to the brain homogenate. The sample was centrifuged at 4° C. and 2150×g for 10 minutes, the supernatant was measured by LC-MS/MS, and the total concentration of the test compound in the brain (Cbrain) and the total concentration of the test compound in the plasma (Cplasma,t) were obtained. The brain-to-plasma concentrations ratio (Kp,brain) was calculated by the following equation.
as §1

Where [4] appears, read: fp by equilibrium dialysis method.
The mark [5] stands for this setting: fp by ultracentrifugation method.

T1 sequence (P48039 whole entry): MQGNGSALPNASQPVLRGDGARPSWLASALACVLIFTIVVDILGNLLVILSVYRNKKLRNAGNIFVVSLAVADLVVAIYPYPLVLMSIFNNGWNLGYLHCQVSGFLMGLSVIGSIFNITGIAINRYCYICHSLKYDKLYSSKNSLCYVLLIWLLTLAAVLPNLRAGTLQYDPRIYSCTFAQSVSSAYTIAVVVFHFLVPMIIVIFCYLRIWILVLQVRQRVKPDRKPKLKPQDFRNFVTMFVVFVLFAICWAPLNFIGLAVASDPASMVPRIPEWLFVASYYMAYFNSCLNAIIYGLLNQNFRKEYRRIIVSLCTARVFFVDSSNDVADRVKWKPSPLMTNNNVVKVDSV

Take `COc1ccc2cccc(CCNC(C)=O)c2c1` [agomelatine]: the “contraction of isolated urethra, increase of urethral pressure” value (“contraction … increase of urethral pressure” below) in data set [1] is listed as “contract the isolated urethra in a rat to increase the urethral pressure of the rat”.
One may read the EC50 as the concentration giving half of the maximal effect. A higher EC50 goes with a need for much substance. By Emax is commonly meant the maximal effect, on the per cent scale that the assay sets. The term Kp denotes tissue or fluid exposure divided by exposure in the circulation. With `CC(=O)NC[C@H](C)c1c[nH]c2cc(F)c(OCCOc3ccn(C)n3)cc12` [Example 37, N-[(2R)-2-(6-fluoro-5-{2-[(1-methyl-1H-pyrazol-3-yl)oxy]ethoxy}-1H-indol-3-yl)propyl]acetamide], on human MT1 receptor, the EC50 amounted to 0.0021 µM and the maximum response (Emax) was 105%. At human MT2 receptor, this compound registered a 50% effective concentration (EC50) of 0.0071 µM and an Emax of 104%. In data set [2] (setting [4]), the Kp uu at 0.25 h amounted to 0.08. Besides, in data set [3], the Kp at 0.25 h was determined as 0.01.
On human MT1 receptor, `CC(=O)NC[C@H](C)c1c[nH]c2cc(Cl)c(OCCOc3ccn(C)n3)cc12` [Example 38, N-[(2R)-2-(6-chloro-5-{2-[(1-methyl-1H-pyrazol-3-yl)oxy]ethoxy}-1H-indol-3-yl)propyl]acetamide] showed an EC50 of 0.002 µM and an Emax of 97%. In addition, on human MT2 receptor, a half-maximal response (EC50) required 0.013 µM and the Emax was found to be 105%. Moreover, the Kp uu at 0.25 h in data set [2] (setting [4]) came out at 0.08. In addition, the Kp at 0.25 h in data set [3] turned out to be 0.02.
Regarding `COc1cc2c([C@@H](C)CNC(C)=O)c[nH]c2cc1Cl` [TIK-301], the “contraction … increase of urethral pressure” value in data set [1] is on record as “contract the isolated urethra in a rat to increase the urethral pressure of the rat”.
At human MT1 receptor, `CC(=O)NCCc1c(C)[nH]c2ccc(OCCOc3ccn(C)n3)cc12` [Example 7, N-[2-(2-methyl-5-{2-[(1-methyl-1H-pyrazol-3-yl)oxy]ethoxy}-1H-indol-3-yl)ethyl]acetamide] gave a half-maximal effective concentration (EC50) of 0.018 µM and an Emax of 90%. On human MT2 receptor, the concentration for a half-maximal effect (EC50) came to 0.022 µM and the Emax was determined as 125%. Besides, in data set [2] (setting [5]), the Kp uu at 0.25 h was determined as 0.14. Also, the Kp at 0.25 h in data set [3] is 0.03.
At human MT1 receptor, `CCC(=O)NCCc1c[nH]c2ccc(OCCOc3ccn(C)n3)cc12` [Example 8, N-[2-(5-{2-[(1-methyl-1H-pyrazol-3-yl)oxy]ethoxy}-1H-indol-3-yl)ethyl]propanamide] returned an EC50 of 0.0091 µM and an Emax of 93%. Besides, on human MT2 receptor, the EC50 came out at 0.012 µM and the Emax was found to be 107%. Besides, the Kp uu at 0.25 h in data set [2] (setting [5]) came to 0.08. Further, in data set [3], the Kp at 0.25 h worked out at 0.04.
At human MT1 receptor, `CC(=O)NCCc1c[nH]c2ccc(OCCn3ccc(C(F)(F)F)n3)cc12` [Example 4, N-[2-(5-{2-[3-(trifluoromethyl)-1H-pyrazol-1-yl]ethoxy}-1H-indol-3-yl)ethyl]acetamide] showed an EC50 of 0.018 µM and a maximal response (Emax) of 102%. At human MT2 receptor, the response was half-maximal at 0.033 µM (EC50) and the Emax amounted to 102%. The Kp uu at 0.25 h in data set [2] (setting [5]) was 0.11. For the same compound, the Kp at 0.25 h in data set [3] came out at 0.29.
In the case of `COc1ccc2[nH]cc(CCNC(C)=O)c2c1` [Melatonin, melatonin], the “contraction … increase of urethral pressure” value in data set [1] is on record as “contract the isolated urethra in a rat to increase the urethral pressure of the rat”.
As for `CCC(=O)NC[C@@H]1C[C@H]1c1cccc2c1CCO2` [tasimelteon], the “contraction … increase of urethral pressure” value in data set [1] is “contract the isolated urethra in a rat to increase the urethral pressure of the rat”.
On to `CNC(=O)NCCc1c[nH]c2ccc(OCCOc3ccc(OC)nc3)cc12` [Example 23, 1-[2-(5-{2-[(6-methoxypyridin-3-yl)oxy]ethoxy}-1H-indol-3-yl)ethyl]-3-methylurea], for which, at human MT1 receptor, the 50% effective concentration (EC50) was 0.021 µM and the Emax is 87%. At human MT2 receptor, this compound gave a half-maximal effective concentration (EC50) of 0.054 µM and a maximal effect (Emax) of 68%. Moreover, in data set [2] (setting [5]), the Kp uu at 0.25 h was 0.04. The Kp at 0.25 h in data set [3] worked out at 0.03.
On human MT1 receptor, `CNC(=O)NCCc1c(C)[nH]c2ccc(OCCOc3ccn(C)n3)cc12` [Example 10, 1-methyl-3-[2-(2-methyl-5-{2-[(1-methyl-1H-pyrazol-3-yl)oxy]ethoxy}-1H-indol-3-yl)ethyl]urea] registered an EC50 of 0.0083 µM and an Emax of 95%. On human MT2 receptor, it took 0.021 µM to reach a half-maximal effect (EC50) and the maximum response (Emax) was 117%. Moreover, in data set [2] (setting [5]), the Kp uu at 0.25 h worked out at 0.07. Besides, the concentration ratio (Kp) at 0.25 h in data set [3] stood at 0.02.
On human MT1 receptor, `CC(=O)NCCc1c(C)[nH]c2ccc(OCCOc3ccnc(C)c3)cc12` [Example 18, N-[2-(2-methyl-5-{2-[(2-methylpyridin-4-yl)oxy]ethoxy}-1H-indol-3-yl)ethyl]acetamide] came in with a 50% effective concentration (EC50) of 0.0077 µM and a maximal response (Emax) of 89%. At human MT2 receptor, the EC50 is 0.021 µM and the maximal response (Emax) was 123%. For the same compound, in data set [2] (setting [5]), the Kp uu at 0.25 h was 0.11. Besides, in data set [3], the partition ratio (Kp) at 0.25 h was 0.03.
